The text below walks through data of patent US20230017539A1, “TRI-HETEROCYCLIC COMPOUND AS JAK INHIBITOR, AND USE THEREOF” (CHIA TAI TIANQING PHARMACEUTICAL GROUP CO., LTD., priority 2019, published 2023).

One series concerns the target T1, JAK1(h) (Homo sapiens, UniProt P23458).
T1 construct: purchased Eurofins, UK
As to the kind of experiment: In vitro activity assay of JAK1 kinase (radiometric, [γ-33P]-ATP). Type of series: biochemical. Particulars: recombinant human JAK1, 40 min at room temperature. On the procedure: (§1) Recombinant human JAK1, JAK2, JAK3 and Tyk2 […], and main instruments and reagents were all provided by Eurofins, UK.
(§2) Dilution of JAK2, JAK3 and TYK2: 20 mM 3-(N-morpholino)propanesulfonic acid (MOPS), 1 mM EDTA, 0.01% Brij-35.5% glycerol, 0.1% β-mercaptoethanol, and 1 mg/mL BSA; dilution of JAK1: 20 mM TRIS, 0.2 mM EDTA, 0.1% β-mercaptoethanol, and 0.01% Brij-35.5% glycerol. All compounds were prepared as 100% DMSO solutions, and the concentration was brought to 50 times the final assay concentration. A test compound was diluted with a 3-fold gradient, with a total of 9 final concentrations ranging from 10 μM to […]. The DMSO content in the assay reaction was 2%. The working stock solution of the compound was added into the assay wells as a first component of the reaction, and the remaining components were then added according to the protocol detailed for the assay below.
JAK1(h) was incubated with 20 mM Tris/HC pH 7.5, 0.2 mM EDTA, 500 μM MGEEPLYWSFPAKKK (SEQ ID NO: 1), 10 mM magnesium acetate and [γ-^33P]-ATP (the activity and concentration were tailored as required). The reaction was started by adding a Mg/ATP mixture, and terminated by adding 0.5% phosphoric acid after 40 min of incubation at room temperature. 10 μL of the reactant was then dotted on a P30 filter pad, washed three times with 0.425% phosphoric acid and once with methanol within 4 minutes, and dried, and scintillation counting was performed.
(§3) The IC50 results were obtained by analysis using XLFITS (formula 205) of IDBS company and detailed in Table 1.

Another series addresses T2, JAK2(h) (Homo sapiens, UniProt O60674).
T2 construct: purchased Eurofins, UK
Description: In vitro activity assay of JAK2 kinase (radiometric, [γ-33P]-ATP). Type of series: biochemical. Particulars: recombinant human JAK2, 40 min at room temperature. The procedure: as §1, §2
JAK2(h) was incubated with 8 mM MOPS pH 7.0, 0.2 mM EDTA, 100 μM […] (SEQ ID NO: 2), 10 mM magnesium acetate and [γ-^33P]-ATP (the activity and concentration were tailored as required). The reaction was started by adding a Mg/ATP mixture, and terminated by adding 0.5% phosphoric acid after 40 min of incubation at room temperature. 10 μL of the reactant was then dotted on a P30 filter pad, washed three times with 0.425% phosphoric acid and once with methanol within 4 minutes, and dried, and scintillation counting was performed.
as §3

In a further series the target is T3, TYK2(h) (Homo sapiens, UniProt P29597).
T3 construct: purchased Eurofins, UK
T3 sequence (P29597 whole entry): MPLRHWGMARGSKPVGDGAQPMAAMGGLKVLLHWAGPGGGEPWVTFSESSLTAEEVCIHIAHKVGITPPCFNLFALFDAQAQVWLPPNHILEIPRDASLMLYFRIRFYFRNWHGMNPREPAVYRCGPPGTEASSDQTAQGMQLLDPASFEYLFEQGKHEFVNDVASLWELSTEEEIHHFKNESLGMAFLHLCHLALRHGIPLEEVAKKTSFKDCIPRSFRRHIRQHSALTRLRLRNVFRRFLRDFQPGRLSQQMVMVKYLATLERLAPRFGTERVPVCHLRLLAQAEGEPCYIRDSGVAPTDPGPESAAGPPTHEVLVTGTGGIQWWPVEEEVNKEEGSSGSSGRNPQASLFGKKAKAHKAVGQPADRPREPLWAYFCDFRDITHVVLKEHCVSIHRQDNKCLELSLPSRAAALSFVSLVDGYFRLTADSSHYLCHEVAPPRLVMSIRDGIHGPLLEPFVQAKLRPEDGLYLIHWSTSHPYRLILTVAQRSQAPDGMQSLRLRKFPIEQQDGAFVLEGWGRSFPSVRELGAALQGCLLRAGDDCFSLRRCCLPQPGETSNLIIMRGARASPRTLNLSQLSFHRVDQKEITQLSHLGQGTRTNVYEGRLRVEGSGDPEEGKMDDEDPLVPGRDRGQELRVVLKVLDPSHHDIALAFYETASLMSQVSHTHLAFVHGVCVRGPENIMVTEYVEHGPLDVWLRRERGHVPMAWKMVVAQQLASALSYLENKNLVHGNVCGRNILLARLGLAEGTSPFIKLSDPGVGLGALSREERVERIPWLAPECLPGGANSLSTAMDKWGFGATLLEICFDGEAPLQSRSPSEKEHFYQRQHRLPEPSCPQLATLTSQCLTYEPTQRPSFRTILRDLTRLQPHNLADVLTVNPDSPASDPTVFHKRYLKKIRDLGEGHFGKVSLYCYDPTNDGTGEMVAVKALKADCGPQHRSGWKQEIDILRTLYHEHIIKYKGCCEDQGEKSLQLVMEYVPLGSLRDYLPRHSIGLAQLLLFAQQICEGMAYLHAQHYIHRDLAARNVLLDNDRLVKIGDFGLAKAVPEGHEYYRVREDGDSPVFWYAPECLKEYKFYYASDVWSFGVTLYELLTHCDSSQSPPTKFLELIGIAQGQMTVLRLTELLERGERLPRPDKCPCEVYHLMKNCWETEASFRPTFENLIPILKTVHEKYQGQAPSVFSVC
Description: In vitro activity assay of TYK2 kinase (radiometric, [γ-33P]-ATP). Type of series: biochemical. The conditions noted are these: recombinant human Tyk2, 40 min at room temperature. The procedure: as §1, §2
TYK2(h) was incubated with 8 mM MOPS pH 7.0, 0.2 mM EDTA, 250 μM GGMEDIYFEFMGGKKK (SEQ ID NO:4), 10 mM magnesium acetate and [γ-^33P]-ATP (the activity and concentration were tailored as required). The reaction was started by adding a Mg/ATP mixture, and terminated by adding 0.5% phosphoric acid after 40 min of incubation at room temperature. 10 μL of the reactant was then dotted on a P30 filter pad, washed three times with 0.425% phosphoric acid and once with methanol within 4 minutes, and dried, and scintillation counting was performed.
as §3

A short description of series [1]: Pharmacokinetic (PK) experiment in rats. Type of series: in vivo. Particulars: Sprague-Dawley (SD), rat, plasma, po, male SD rats; for AUC(0-inf) / Cmax / half-life: fasted, tail vein injection 1 mg/kg and gavage 5 mg/kg, route not given; for AUC(0-inf): read-out: AUC0-inf (area under plasma concentration-time curve from time 0 extrapolated to infinite time); for Cmax: read-out: Cmax (peak concentration); for half-life: read-out: T1/2 (half-life) (converted); for bioavailability: gavage 5 mg/kg vs tail vein injection 1 mg/kg. On the procedure:
A test compound was dissolved [5% DMSO, 95% (12% SBE-β-CD)] to give a clear solution, which was administered into male rats (SD) (overnight fasting, 7-8 weeks old) by tail vein injection and by gavage, respectively. After administration of the test compound, blood was collected from the mandibular vein and centrifuged to obtain plasma at 0.117, 0.333, 1, 2, 4, 7 and 24 h in the tail vein injection group (1 mg/kg), and at 0.25, 0.5, 1, 2, 4, 8 and 24 h in the gavage group (5 mg/kg). The plasma concentration was measured using LC-MS/MS method, and the relevant pharmacokinetic parameters were calculated using WinNonlin™ Version 6.3 pharmacokinetic software with non-compartmental model linear logarithmic trapezoidal method.

T2 sequence (O60674 whole entry): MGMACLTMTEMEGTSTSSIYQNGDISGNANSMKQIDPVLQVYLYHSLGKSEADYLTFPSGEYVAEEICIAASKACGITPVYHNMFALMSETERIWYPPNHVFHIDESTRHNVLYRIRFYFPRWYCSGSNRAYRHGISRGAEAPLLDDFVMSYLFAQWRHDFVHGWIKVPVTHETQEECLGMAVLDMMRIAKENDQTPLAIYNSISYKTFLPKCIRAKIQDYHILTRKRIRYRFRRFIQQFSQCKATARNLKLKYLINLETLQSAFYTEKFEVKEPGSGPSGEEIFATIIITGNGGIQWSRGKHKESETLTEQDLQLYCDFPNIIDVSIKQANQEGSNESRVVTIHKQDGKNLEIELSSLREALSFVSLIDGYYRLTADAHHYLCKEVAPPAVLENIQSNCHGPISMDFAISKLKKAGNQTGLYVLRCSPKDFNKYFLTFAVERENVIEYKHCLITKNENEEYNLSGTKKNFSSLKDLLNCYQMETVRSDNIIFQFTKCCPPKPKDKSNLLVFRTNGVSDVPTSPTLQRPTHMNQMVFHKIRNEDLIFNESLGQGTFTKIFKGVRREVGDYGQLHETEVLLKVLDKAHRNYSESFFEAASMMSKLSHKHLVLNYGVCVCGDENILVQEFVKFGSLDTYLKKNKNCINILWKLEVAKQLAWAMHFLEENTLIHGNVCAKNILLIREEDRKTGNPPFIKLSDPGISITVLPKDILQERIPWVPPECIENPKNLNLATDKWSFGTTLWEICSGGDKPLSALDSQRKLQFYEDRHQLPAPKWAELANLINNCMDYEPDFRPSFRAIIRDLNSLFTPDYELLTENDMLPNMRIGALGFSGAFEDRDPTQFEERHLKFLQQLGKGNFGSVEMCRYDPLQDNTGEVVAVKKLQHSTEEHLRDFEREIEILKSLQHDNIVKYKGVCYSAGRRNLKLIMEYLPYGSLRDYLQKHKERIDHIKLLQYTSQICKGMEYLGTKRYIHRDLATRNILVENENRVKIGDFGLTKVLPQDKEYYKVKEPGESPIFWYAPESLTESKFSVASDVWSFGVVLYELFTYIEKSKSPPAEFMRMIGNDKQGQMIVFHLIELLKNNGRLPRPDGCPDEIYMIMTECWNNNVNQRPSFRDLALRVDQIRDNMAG
T1 sequence (P23458 whole entry): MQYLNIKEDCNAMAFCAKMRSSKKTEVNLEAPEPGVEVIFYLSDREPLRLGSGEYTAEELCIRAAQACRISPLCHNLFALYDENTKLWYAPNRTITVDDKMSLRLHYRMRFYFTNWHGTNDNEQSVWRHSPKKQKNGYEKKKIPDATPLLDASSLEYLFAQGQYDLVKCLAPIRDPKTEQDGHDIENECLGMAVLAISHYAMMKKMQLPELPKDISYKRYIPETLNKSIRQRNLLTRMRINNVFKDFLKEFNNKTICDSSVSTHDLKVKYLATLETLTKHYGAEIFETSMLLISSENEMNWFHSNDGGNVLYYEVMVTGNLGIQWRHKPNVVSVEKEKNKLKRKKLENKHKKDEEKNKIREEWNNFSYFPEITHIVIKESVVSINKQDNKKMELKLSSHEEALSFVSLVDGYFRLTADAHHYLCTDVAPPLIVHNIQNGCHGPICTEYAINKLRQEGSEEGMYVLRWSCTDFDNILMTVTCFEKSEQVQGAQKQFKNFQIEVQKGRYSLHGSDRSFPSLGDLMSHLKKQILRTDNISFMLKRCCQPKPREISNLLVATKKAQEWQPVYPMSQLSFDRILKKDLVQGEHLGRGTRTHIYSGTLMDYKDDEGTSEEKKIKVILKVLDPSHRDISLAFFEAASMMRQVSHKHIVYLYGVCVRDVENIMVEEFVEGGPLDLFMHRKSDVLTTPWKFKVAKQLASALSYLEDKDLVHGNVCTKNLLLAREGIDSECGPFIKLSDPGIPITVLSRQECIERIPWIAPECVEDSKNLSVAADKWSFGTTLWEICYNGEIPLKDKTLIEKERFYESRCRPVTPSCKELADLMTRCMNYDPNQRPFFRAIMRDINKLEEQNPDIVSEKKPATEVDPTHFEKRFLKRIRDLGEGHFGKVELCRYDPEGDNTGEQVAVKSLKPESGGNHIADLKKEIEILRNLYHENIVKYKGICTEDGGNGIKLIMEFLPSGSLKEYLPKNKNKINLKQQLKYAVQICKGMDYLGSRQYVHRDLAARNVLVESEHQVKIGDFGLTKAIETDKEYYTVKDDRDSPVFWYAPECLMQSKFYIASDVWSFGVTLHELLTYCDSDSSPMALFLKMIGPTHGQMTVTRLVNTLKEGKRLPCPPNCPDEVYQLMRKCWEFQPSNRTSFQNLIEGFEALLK

The term IC50 denotes the midpoint of a concentration-inhibition curve. On to `N#Cc1cc2n(n1)CC(n1cnc3cnc4[nH]ccc4c31)CC2` (single isomer, unassigned) [Compound 1A], for which, at JAK1(h), the IC50 is 1.3 nM. The IC50 on JAK2(h) was 27 nM. On TYK2(h), the IC50 was 35.8 nM. Moreover, in series [1], the AUC(0-inf) was 8.51 µM·h, the Cmax is 2.94 µM, the half-life was 1.35 h and the bioavailability stood at 41.8%.

With `COc1nc2cnc3[nH]ccc3c2n1[C@@H]1CCc2cc(C#N)nn2C1` [Compound 4], on JAK1(h), the IC50 was 0.9 nM. Moreover, at JAK2(h), the IC50 worked out at 7 nM. Moreover, the IC50 on TYK2(h) turned out to be 50.3 nM. In addition, in series [1], the AUC(0-inf) is 67.8 µM·h, the Cmax is 10.2 µM, the half-life is 3.65 h and the bioavailability came out at 119%.
